{"source": "patent US11098342B2", "about": "“Time lapse sequencing: a convertible-nucleoside approach to enrichment-free analysis of RNA dynamics” (Yale University, priority 2017, dated 2021)", "system": "MEF cells", "experiment": "MEF cell viability, MTT Cell Proliferation Assay", "type": "cell-based, mouse", "conditions": "MEF cells treated with s^4U (0-1 mM) for 1 hour; MTT assay in triplicate", "protocol": "FIG. 9A depicts exemplary MEF cell viability assays with increasing concentrations of s^4U (0, 50, 100, 500 and 1000 μM). FIG. 9B depicts exemplary MEF cell viability assays with increasing concentrations of Triton-X-100 (0, 0.5, 1, and 2%). MEF cells were plated at 10^6 cells/ml and allowed to rest overnight. An MTT assay (ATTC MTT Cell Proliferation Assay kit) was performed in triplicate after indicated treatment for 1 h. After treatment and lysis, absorbance at 570 nm was measured. FIG. 9C depicts an exemplary MA-plot of expression levels in RNA-seq in MEF cells treated with 1 mM s^4U for 1 hour, compared to cells without s^4U treatment. […] Each condition was tested with two replicates. Conditions are: ++, with s^4U treatment and chemical treatment; +−, with s^4U treatment but no chemical treatment; −+, no s^4U treatment but with chemical treatment; −−, neither s^4U treatment nor chemical treatment.\nMEF cells were grown at 37° C. in DMEM containing 10% FBS and 1% P/S. Cells were plated at 10^6 cells/mL in a 96-well microtiter plate and allowed to recover overnight. Cells were then treated in triplicate with increasing concentrations of s^4U (0-1 mM) for 1 hour, and the ATCC MTT Cell Proliferation Assay kit was used according to manufacturer's instructions to assess cell viability.", "data": [{"smiles": "O=c1[nH]c(=S)ccn1[C@@H]1O[C@H](CO)[C@@H](O)[C@H]1O", "note": "[s^4U, 4-thiouridine]", "values": [{"measurement": "s^4U toxicity (cell viability, absorbance at 570 nm)", "value": "no s^4U toxicity was observed"}]}]}
